Data on 7 compounds can be found in US10414774B2, “Compound useful for altering the levels of bile acids for the treatment of diabetes and cardiometabolc disease” (Merck Sharp & Dohme Corp., priority 2016, dated 2019).

The target of one data set is T1, Human CYP8B1 (Homo sapiens, UniProt Q9UNU6).
T1 sequence (Q9UNU6 1-501): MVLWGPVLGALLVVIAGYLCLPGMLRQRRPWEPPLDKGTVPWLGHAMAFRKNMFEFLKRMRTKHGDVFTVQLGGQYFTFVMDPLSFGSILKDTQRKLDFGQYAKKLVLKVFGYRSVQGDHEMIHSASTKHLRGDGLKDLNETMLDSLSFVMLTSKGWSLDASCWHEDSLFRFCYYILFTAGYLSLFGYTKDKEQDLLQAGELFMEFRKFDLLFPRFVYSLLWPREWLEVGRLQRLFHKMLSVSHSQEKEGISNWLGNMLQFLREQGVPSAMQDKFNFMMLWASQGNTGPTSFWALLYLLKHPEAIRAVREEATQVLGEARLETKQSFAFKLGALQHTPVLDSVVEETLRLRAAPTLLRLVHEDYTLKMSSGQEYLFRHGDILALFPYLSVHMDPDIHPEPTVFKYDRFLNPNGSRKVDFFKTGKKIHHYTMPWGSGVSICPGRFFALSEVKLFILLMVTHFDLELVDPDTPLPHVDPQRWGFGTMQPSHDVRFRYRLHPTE
The experiment in a line: Human CYP8B1 Liver Microsome Assay. The note with it: Human CYP8B1 IC50, human liver microsomes; substrate 7a-hydroxy-4-cholesten-3-one, NADPH; RapidFire MS detection of 7α,12α-dihydroxy-4-cholesten-3-one. For orientation: Liver microsomes are vesicles of endoplasmic reticulum, rich in cytochrome P450 enzymes.
Description: To a 384 well polypropylene plate (Corning 3656), 250 nl of inhibitor in 100% DMSO (1.25% final DMSO concentration) was pre-plated using an Echo liquid handler (Labcyte Inc.). Human liver microsomes (Xenotech) were diluted in of 0.1 M phosphate buffer, pH 7.4, at a concentration of 65 μg/ml and 15 μL was added to the 384 well plate. The plates were incubated at ambient room temperature for 30 minutes. After pre-incubation with inhibitor, the reaction was initiated by adding 5 μl of substrate solution (4.0 μM 7a-hydroxy-4-cholesten-3-one (Toronto Research Chemicals), 2 mM of NADPH (Sigma), 0.1 M phosphate buffer (pH 7.4). The reaction was carried out for 45 minutes at ambient room temperature and was quenched by the addition of 50 μl of acetonitrile+0.1% vol/vol formic acid (FA)+300 nM 7α-hydroxy-4-cholesten-3-one-d7 (Toronto Research Chemicals). The plates were sealed and centrifuged at 3000 rpm for 5 minutes. Plates were loaded onto the Agilent RapidFire RF300 HTMS system, wherein samples were sipped for 600 ms, and the sip sensor detection signals the diversion of sample from the loop onto a C4 solid phase extraction (SPE) cartridge, where salts are washed off for 2500 ms with a mobile phase of water with 0.1% vol/vol FA at a flow rate of 1.5 ml/min. The column path was switched, and the sample was eluted off the cartridge and flowed into the mass spectrometer for 3000 ms with a mobile phase of acetonitrile and 0.1% vol/vol FA at a flow rate of 1.25 ml/min. The aspirator tip was washed separately with water and acetonitrile between sample aspirations (each for 600 ms) to minimize carryover contamination. Mass spectrometry was carried out using a Sciex API4000 triple quadrupole mass spectrometer (Applied Biosystems, Concord, ON, Canada) equipped with electrospray ionization (ESI) operated in the positive-ion mode. The product 7α,12α-dihydroxy-4-cholesten-3-one and internal standard 7α-hydroxy-4-cholsten-3-one-d7 were detected using multiple reaction monitoring (MRM) with Q1/Q3 transitions at m/z 417.3 to 381.3 and m/z 408.3 to 390.3, respectively, with a dwell time of 100 ms and a collision energy of 24 V for each transition. The mass spectrometer used an ESI voltage of 5000 V and a source temperature of 650° C. Extracted ion chromatograms for each transition were integrated and processed using the RapidFire Integrator software. The data for each well were normalized by monitoring product conversion with the ratio of AUCproduct/(AUCinternal standard). The data was then fitted to a four parameter logistic fit using ActivityBase Software to calculate an IC50 of the inhibitor.
The IC50 is the concentration needed to halve the response being measured. A higher IC50 goes with weaker potency in that assay. In turn, `Cc1nc2ccc(Cl)cc2c(N2CC[C@H](C(=O)N3CCn4c(nnc4C(F)(F)F)C3)[C@H](C)C2)c1C#N` [Example 122, 6-chloro-2-methyl-4-((3S,4S)-3-methyl-4-(3-(trifluoromethyl)-5,6,7,8-tetrahydro-[1,2,4]triazolo[4,3-a]pyrazine-7-carbonyl)piperidin-1-yl)quinoline-3-carbonitrile] came in with an IC50 of 0.5 nM.
`C[C@@H]1CN(c2c(C#N)c[n+]([O-])c3ccc(Cl)cc23)CC[C@@H]1C(=O)N1CCn2c(nnc2C(F)(F)F)C1` [Example 123, 6-chloro-3-cyano-4-((3S,4S)-3-methyl-4-(3-(trifluoromethyl)-5,6,7,8-tetrahydro-[1,2,4]triazolo[4,3-a]pyrazine-7-carbonyl)piperidin-1-yl)quinoline 1-oxide] registered a half-inhibitory concentration (IC50) of 1.9 nM.
`COc1nc2ccc(Cl)cc2c(N2CCC(C(=O)N3CCn4c(nnc4C(F)(F)F)C3)C(C)C2)c1C#N` (stereo not shown) [Example 126, 6-chloro-2-methoxy-4-(3-methyl-4-{[3-(trifluoromethyl)-5,6-dihydro[1,2,4]triazolo[4,3-a]pyrazin-7(8H)-yl]carbonyl}piperidin-1-yl)quinoline-3-carbonitrile]: the IC50 amounted to 210 nM.
On to `N#Cc1cnc2ccc(Cl)cc2c1N1CCN(C(=O)N2CCn3c(nnc3C(F)(F)F)C2)C2(CC2)C1` [Example 127, 6-chloro-4-(4-{[3-(trifluoromethyl)-5,6-dihydro[1,2,4]triazolo[4,3-a]pyrazin-7(8H)-yl]carbonyl}-4,7-diazaspiro[2.5]oct-7-yl)quinoline-3-carbonitrile], for which the half-maximal inhibitory concentration (IC50) turned out to be 98 nM. Against the preceding compound, the IC50 is about 2.1-fold lower.
Still for that read-out and setting: the same measure for `C[C@@H]1CN(c2c(C#N)cnc3ccc(Cl)cc23)CCN1C(=O)N1CCn2c(nnc2C(F)(F)F)C1` [Example 128, 6-chloro-4-[(3R)-3-methyl-4-{[3-(trifluoromethyl)-5,6-dihydro[1,2,4]triazolo[4,3-a]pyrazin-7(8H)-yl]carbonyl}piperazin-1-yl]quinoline-3-carbonitrile]: 2.9 nM.
Still for that read-out and setting: the same measure for `N#Cc1cnc2ccc(Cl)cc2c1N1CCN(C(=O)N2CCn3c(nnc3C(F)(F)F)C2)CC1` [Example 129, 6-chloro-4-(4-{[3-(trifluoromethyl)-5,6-dihydro[1,2,4]triazolo[4,3-a]pyrazin-7(8H)-yl]carbonyl}piperazin-1-yl)quinoline-3-carbonitrile]: 386 nM.

A further data set addresses T1, Human CYP8B1.
Test: not given
Details: not given
The compound “6-chloro-4-[(3S,4S)-4-(6,7-dihydro[1,2,3]triazolo[1,5-a]pyrazin-5-(4H)-ylcarbonyl)-3-methylpiperidin-1-yl]-2-methylquinoline-3-carbonitrile [Example 94]” yielded an IC50 of 4500 nM. This lies in the single-digit micromolar range.
